Measurements reported in PubChem BioAssay (NCI).
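How tested: cells in 96-well plates exposed to compound for 48 hours at five concentrations. At the TGI there is no net growth.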

Legend:
Experiment in all cases: NCI-60 cell line screen, 48 h
[1] = tested on: HT29 colon
[2] = tested on: RPMI-8226 leukemia
[3] = tested on: HCT-116 colon
[4] = tested on: 786-0 renal
[5] = tested on: SNB-19 CNS
[6] = tested on: IGROV1 ovarian
[7] = tested on: OVCAR-8 ovarian
[8] = tested on: LOX IMVI melanoma
[9] = tested on: SN12C renal
[10] = tested on: SK-MEL-2 melanoma
[11] = tested on: UACC-62 melanoma
[12] = tested on: SF-268 CNS
[13] = tested on: HOP-62 NSCLC
[14] = tested on: SF-295 CNS
[15] = tested on: DMS 114 small cell lung
[16] = tested on: TK-10 renal
[17] = tested on: SK-OV-3 ovarian
[18] = tested on: UACC-257 melanoma
[19] = tested on: SNB-75 CNS
[20] = tested on: ACHN renal
[21] = tested on: A498 renal
[22] = tested on: UO-31 renal
[23] = tested on: SK-MEL-5 melanoma
[24] = tested on: OVCAR-5 ovarian
[25] = tested on: OVCAR-4 ovarian
[26] = tested on: RXF 393 renal
[27] = tested on: M19-MEL melanoma
[28] = tested on: SK-MEL-28 melanoma
[29] = tested on: SW-620 colon
[30] = tested on: HCT-15 colon
[31] = tested on: NCI-H522 lung
[32] = tested on: DLD-1 colon
[33] = tested on: LXFL 529 NSCLC
[34] = tested on: HCC-2998 colon
[35] = tested on: CAKI-1 renal
[36] = tested on: KM20L2 colon
[37] = tested on: NCI-H226 lung
[38] = tested on: HL-60(TB) leukemia
[39] = tested on: EKVX NSCLC
[40] = tested on: SNB-78 CNS
[41] = tested on: SF-539 CNS
[42] = tested on: MOLT-4 leukemia
[43] = tested on: HOP-92 NSCLC
[44] = tested on: NCI-H23 lung
[45] = tested on: M14 melanoma
[46] = tested on: DMS 273 small cell lung
[47] = tested on: U251 CNS
[48] = tested on: K-562 leukemia
[49] = tested on: KM12 colon
[50] = tested on: NCI-H460 lung
[51] = tested on: HOP-18 NSCLC
[52] = tested on: A549 NSCLC
[53] = tested on: MALME-3M melanoma
[54] = tested on: XF 498 CNS
[55] = tested on: CCRF-CEM leukemia
[56] = tested on: SR leukemia
[57] = tested on: OVCAR-3 ovarian
[58] = tested on: COLO 205 colon

## CN(C)c1nc(=Nc2ccc3c(c2)OCO3)ss1
[1]
  TGI: > 100 µM
[2]
  TGI: 57.8 µM
[3]
  TGI: > 100 µM
[4]
  TGI: > 100 µM
[5]
  TGI: > 100 µM
[6]
  TGI: > 100 µM
[7]
  TGI: > 100 µM
[8]
  TGI: > 100 µM
[9]
  TGI: > 100 µM
[10]
  TGI: > 100 µM
[11]
  TGI: > 100 µM
[12]
  TGI: > 100 µM
[13]
  TGI: > 100 µM
[14]
  TGI: > 100 µM
[15]
  TGI: > 100 µM
[16]
  TGI: > 100 µM
[17]
  TGI: > 100 µM
[18]
  TGI: > 100 µM
[19]
  TGI: 66 µM
[20]
  TGI: > 100 µM
[21]
  TGI: > 100 µM
[22]
  TGI: 83.3 µM
[23]
  TGI: > 100 µM
[24]
  TGI: > 100 µM
[25]
  TGI: > 100 µM
[26]
  TGI: > 100 µM
[27]
  TGI: > 100 µM
[28]
  TGI: > 100 µM
[29]
  TGI: > 100 µM
[30]
  TGI: > 100 µM
[31]
  TGI: > 100 µM
[32]
  TGI: > 100 µM
[33]
  TGI: > 100 µM
[34]
  TGI: > 100 µM
[35]
  TGI: > 100 µM
[36]
  TGI: > 100 µM
[37]
  TGI: > 100 µM
[38]
  TGI: 60 µM
[39]
  TGI: > 100 µM
[40]
  TGI: > 100 µM
[41]
  TGI: > 100 µM
[42]
  TGI: 78.4 µM
[43]
  TGI: > 100 µM
[44]
  TGI: > 100 µM
[45]
  TGI: > 100 µM
[46]
  TGI: > 100 µM
[47]
  TGI: > 100 µM
[48]
  TGI: > 100 µM
[49]
  TGI: > 100 µM
[50]
  TGI: > 100 µM
[51]
  TGI: > 100 µM
[52]
  TGI: > 100 µM
[53]
  TGI: > 100 µM
[54]
  TGI: > 100 µM
[55]
  TGI: > 100 µM

## CCN1C(=O)N(C)C(O)c2c1nc1ccccn1c2=O (configuration not stated)
[1]
  TGI: 70.7 µM
[2]
  TGI: 78.6 µM
[3]
  TGI: 84.1 µM
[4]
  TGI: 98.4 µM
[5]
  TGI: > 100 µM
[56]
  TGI: > 100 µM
[6]
  TGI: > 100 µM
[7]
  TGI: 46.4 µM
[8]
  TGI: 33.2 µM
[9]
  TGI: 64 µM
[10]
  TGI: 62.8 µM
[11]
  TGI: 1.98 µM
[12]
  TGI: 68.8 µM
[13]
  TGI: 98.6 µM
[14]
  TGI: > 100 µM
[15]
  TGI: > 100 µM
[16]
  TGI: 60.4 µM
[17]
  TGI: 59.4 µM
[18]
  TGI: > 100 µM
[19]
  TGI: 56.7 µM
[20]
  TGI: > 100 µM
[21]
  TGI: 66.2 µM
[22]
  TGI: > 100 µM
[25]
  TGI: > 100 µM
[26]
  TGI: 59 µM
[27]
  TGI: 83.6 µM
[28]
  TGI: 77.6 µM
[29]
  TGI: > 100 µM
[30]
  TGI: > 100 µM
[31]
  TGI: 65.6 µM
[32]
  TGI: > 100 µM
[33]
  TGI: > 100 µM
[34]
  TGI: 43.6 µM
[36]
  TGI: 59.8 µM
[37]
  TGI: > 100 µM
[38]
  TGI: 90.7 µM
[57]
  TGI: 63.9 µM
[39]
  TGI: 53 µM
[40]
  TGI: 82.5 µM
[41]
  TGI: 54.3 µM
[42]
  TGI: > 100 µM
[43]
  TGI: 62.5 µM
[44]
  TGI: 63.6 µM
[45]
  TGI: > 100 µM
[46]
  TGI: 42.4 µM
[47]
  TGI: > 100 µM
[48]
  TGI: > 100 µM
[49]
  TGI: > 100 µM
[50]
  TGI: 42.8 µM
[58]
  TGI: 37.6 µM
[51]
  TGI: 65.3 µM
[52]
  TGI: 98.6 µM
[53]
  TGI: > 100 µM
[54]
  TGI: 83.4 µM
[55]
  TGI: 95.5 µM

## CCCCc1c2c(nc3c1CCCC3=O)C(=O)CCC2
[1]
  TGI: > 100 µM
[2]
  TGI: > 100 µM
[3]
  TGI: > 100 µM
[4]
  TGI: > 100 µM
[5]
  TGI: > 100 µM
[56]
  TGI: > 100 µM
[6]
  TGI: > 100 µM
[7]
  TGI: > 100 µM
[8]
  TGI: > 100 µM
[9]
  TGI: > 100 µM
[10]
  TGI: > 100 µM
[11]
  TGI: > 100 µM
[12]
  TGI: > 100 µM
[13]
  TGI: > 100 µM
[14]
  TGI: > 100 µM
[15]
  TGI: > 100 µM
[16]
  TGI: > 100 µM
[17]
  TGI: > 100 µM
[18]
  TGI: > 100 µM
[19]
  TGI: > 100 µM
[20]
  TGI: > 100 µM
[21]
  TGI: > 100 µM
[22]
  TGI: > 100 µM
[23]
  TGI: > 100 µM
[24]
  TGI: > 100 µM
[25]
  TGI: > 100 µM
[26]
  TGI: > 100 µM
[27]
  TGI: > 100 µM
[28]
  TGI: > 100 µM
[29]
  TGI: > 100 µM
[30]
  TGI: > 100 µM
[31]
  TGI: > 100 µM
[32]
  TGI: > 100 µM
[33]
  TGI: > 100 µM
[34]
  TGI: > 100 µM
[36]
  TGI: > 100 µM
[37]
  TGI: > 100 µM
[38]
  TGI: > 100 µM
[57]
  TGI: > 100 µM
[39]
  TGI: > 100 µM
[40]
  TGI: > 100 µM
[41]
  TGI: > 100 µM
[42]
  TGI: > 100 µM
[43]
  TGI: > 100 µM
[44]
  TGI: > 100 µM
[45]
  TGI: > 100 µM
[46]
  TGI: > 100 µM
[47]
  TGI: > 100 µM
[48]
  TGI: > 100 µM
[49]
  TGI: > 100 µM
[50]
  TGI: > 100 µM
[58]
  TGI: > 100 µM
[51]
  TGI: > 100 µM
[52]
  TGI: > 100 µM
[53]
  TGI: > 100 µM
[54]
  TGI: > 100 µM
[55]
  TGI: > 100 µM
